According to ChEMBL document CHEMBL1201862, “PubChem BioAssay data set” (2004):
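Grown in 96-well plates, cells were treated for 48 hours with each compound at five concentrations. Insufficient inhibition: endpoint recorded as highest concentration tested. At the GI50, growth is halved.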 Activity calls are given as the source filed them. No stated cut-off is given here; in the data, active = GI50 up to about 1.1 µM and inactive = higher.

Assays:
Test in all cases: NCI-60 cell line screen, 48 h
786-0 = tested on: 786-0
UACC-257 = tested on: UACC-257
TK-10 = tested on: TK-10
COLO 205 = tested on: COLO 205
ACHN = tested on: ACHN
HL-60 = tested on: HL-60
NCI-H226 = tested on: NCI-H226
UO-31 = tested on: UO-31
A549 = tested on: A549
SF-539 = tested on: SF-539
SF-295 = tested on: SF-295
NCI-H23 = tested on: NCI-H23
OVCAR-8 = tested on: OVCAR-8
Malme-3M = tested on: Malme-3M
OVCAR-5 = tested on: OVCAR-5
RXF 393 = tested on: RXF 393

Compound	GI50 (786-0)	GI50 (UACC-257)	GI50 (TK-10)	GI50 (COLO 205)	GI50 (ACHN)	GI50 (HL-60)	GI50 (NCI-H226)	GI50 (UO-31)	GI50 (A549)	GI50 (SF-539)	GI50 (SF-295)	GI50 (NCI-H23)	GI50 (OVCAR-8)	GI50 (Malme-3M)	GI50 (OVCAR-5)	GI50 (RXF 393)
O=c1[nH]ccc2c1ccn2C1CC(O)C(CO)O1 (stereo unspecified)	> 100 µM (inactive)	> 100 µM (inactive)	> 100 µM (inactive)	> 100 µM (inactive)	> 100 µM (inactive)	> 100 µM (inactive)	> 100 µM (inactive)	> 100 µM (inactive)	> 100 µM (inactive)	> 100 µM (inactive)	> 100 µM (inactive)	> 100 µM (inactive)	> 100 µM (inactive)	> 100 µM (inactive)	> 100 µM (inactive)	
COC(OC)c1cc2c(cc1C(=O)[C@@]13CCC[C@@H]1NC(=O)O3)OCO2	> 100 µM (inactive)	> 100 µM (inactive)	> 100 µM (inactive)		> 100 µM (inactive)	> 100 µM (inactive)	> 100 µM (inactive)	60.3 µM (inactive)		> 100 µM (inactive)	> 100 µM (inactive)	78.5 µM (inactive)	> 100 µM (inactive)	22.6 µM (inactive)	> 100 µM (inactive)	52.2 µM (inactive)
Cn1nc2ccccc2cc1=O	> 100 µM (inactive)	> 100 µM (inactive)	> 100 µM (inactive)	> 100 µM (inactive)	> 100 µM (inactive)		> 100 µM (inactive)	> 100 µM (inactive)	> 100 µM (inactive)	> 100 µM (inactive)	> 100 µM (inactive)	> 100 µM (inactive)	> 100 µM (inactive)	> 100 µM (inactive)	> 100 µM (inactive)	
c1ccc2[nH]c(CNc3ccc(C4C[Se]N=N4)cc3)nc2c1 (stereo unspecified)	> 100 µM (inactive)		> 100 µM (inactive)	48.6 µM (inactive)	> 100 µM (inactive)	28.2 µM (inactive)		38.9 µM (inactive)	> 100 µM (inactive)	> 100 µM (inactive)	28.4 µM (inactive)	30.3 µM (inactive)	28.5 µM (inactive)	25.3 µM (inactive)	> 100 µM (inactive)	> 100 µM (inactive)
O=C(O)CC[C@H](NC(=O)c1ccc(-n2nc3ccc(=O)cc-3[nH]c2=O)cc1)C(=O)O	> 100 µM (inactive)	> 100 µM (inactive)	> 100 µM (inactive)	> 100 µM (inactive)	> 100 µM (inactive)	> 100 µM (inactive)		> 100 µM (inactive)	> 100 µM (inactive)	> 100 µM (inactive)	> 100 µM (inactive)	> 100 µM (inactive)	> 100 µM (inactive)	> 100 µM (inactive)	> 100 µM (inactive)	> 100 µM (inactive)
O=C1C=C(Nc2ccccc2C(=O)CC(=O)C(=O)Nc2cccc([N+](=O)[O-])c2)c2ccccc2C1=O	29.4 µM (inactive)	27.2 µM (inactive)	> 100 µM (inactive)	> 100 µM (inactive)	> 100 µM (inactive)	3.38 µM (inactive)	59.3 µM (inactive)	34.9 µM (inactive)	83.9 µM (inactive)	> 100 µM (inactive)		26.9 µM (inactive)	28 µM (inactive)	20.4 µM (inactive)	> 100 µM (inactive)	46.3 µM (inactive)
COc1ccc(/C(=N/NC(N)=O)C(c2ccc(OC)cc2)C2C(=O)Oc3ccccc32)cc1 (stereo unspecified)	> 100 µM (inactive)	> 100 µM (inactive)		> 100 µM (inactive)		> 100 µM (inactive)	> 100 µM (inactive)	35 µM (inactive)	> 100 µM (inactive)	> 100 µM (inactive)	> 100 µM (inactive)	> 100 µM (inactive)	> 100 µM (inactive)	> 100 µM (inactive)	> 100 µM (inactive)	86.1 µM (inactive)
CCOc1ccc(NC(=O)CC2Sc3ccccc3NC2=O)cc1 (stereo unspecified)	19.2 µM (inactive)	> 100 µM (inactive)	60.5 µM (inactive)	41.1 µM (inactive)	49.8 µM (inactive)	> 100 µM (inactive)	> 100 µM (inactive)	47.2 µM (inactive)	> 100 µM (inactive)	45.3 µM (inactive)	> 100 µM (inactive)	> 100 µM (inactive)	21.1 µM (inactive)	97.5 µM (inactive)	> 100 µM (inactive)	
COC(=O)N/N=C(\C)CC(=O)Nc1ccc(Cl)cc1	> 100 µM (inactive)	> 100 µM (inactive)	> 100 µM (inactive)	> 100 µM (inactive)		> 100 µM (inactive)	> 100 µM (inactive)	67.3 µM (inactive)	> 100 µM (inactive)	> 100 µM (inactive)	> 100 µM (inactive)	> 100 µM (inactive)	> 100 µM (inactive)	> 100 µM (inactive)	> 100 µM (inactive)	42.6 µM (inactive)
CC1OC(n2cc(F)c(=O)[nH]c2=O)CCC1=O (stereo unspecified)	> 100 µM (inactive)	> 100 µM (inactive)	> 100 µM (inactive)	79.4 µM (inactive)	> 100 µM (inactive)	74.6 µM (inactive)	> 100 µM (inactive)	71.8 µM (inactive)	46.7 µM (inactive)	10.4 µM (inactive)	> 100 µM (inactive)		> 100 µM (inactive)	> 100 µM (inactive)	> 100 µM (inactive)	> 100 µM (inactive)
COc1ccc(N2C(=O)C3c4[nH]c5ccccc5c4C4CCC(C(C)(C)C)CC4C3C2=O)cc1OC (stereo unspecified)	17.8 µM (inactive)	67 µM (inactive)		31.2 µM (inactive)	22.1 µM (inactive)	59.4 µM (inactive)	20 µM (inactive)	34.4 µM (inactive)	16.1 µM (inactive)	18.6 µM (inactive)	20.4 µM (inactive)	34.6 µM (inactive)	18.2 µM (inactive)	38.4 µM (inactive)		14.8 µM (inactive)
CCOC(=O)c1cc(/C=C/C(C)=C/C(=O)OC)oc1-c1ccccc1	> 100 µM (inactive)	61.8 µM (inactive)	> 100 µM (inactive)	> 100 µM (inactive)	71.8 µM (inactive)	46.2 µM (inactive)	> 100 µM (inactive)	35.4 µM (inactive)	49.8 µM (inactive)	43.9 µM (inactive)	50.8 µM (inactive)	61.8 µM (inactive)	92.7 µM (inactive)	> 100 µM (inactive)	> 100 µM (inactive)	
CCn1c2ccccc2c(=O)c2c(OC)ccc(OC)c21	51.3 µM (inactive)	41.4 µM (inactive)		55.7 µM (inactive)	35.9 µM (inactive)	29.6 µM (inactive)	32.2 µM (inactive)	25.4 µM (inactive)	55.6 µM (inactive)	68.1 µM (inactive)	53.8 µM (inactive)	> 83.8 µM (inactive)	56.8 µM (inactive)	68.5 µM (inactive)	> 61.7 µM (inactive)	32.5 µM (inactive)
COC(=O)/C(=C/CC(N=C(c1ccccc1)c1ccccc1)C(=O)OC)N=C(c1ccccc1)c1ccccc1 (stereo unspecified)	> 100 µM (inactive)	> 100 µM (inactive)	> 100 µM (inactive)	> 100 µM (inactive)	> 100 µM (inactive)	> 100 µM (inactive)		45.9 µM (inactive)	> 100 µM (inactive)		> 100 µM (inactive)	> 100 µM (inactive)	> 100 µM (inactive)	> 100 µM (inactive)		26.1 µM (inactive)
N#CC1=C(c2ccccc2)NN(Cc2ccccc2)C(c2ccc(Cl)cc2)CC1=O (stereo unspecified)	24.3 µM (inactive)	37.8 µM (inactive)	42.8 µM (inactive)	36.1 µM (inactive)	23.3 µM (inactive)	28.2 µM (inactive)	57.8 µM (inactive)		18.2 µM (inactive)		27.5 µM (inactive)	20.1 µM (inactive)			34 µM (inactive)	22.3 µM (inactive)
OC1(C23CC4CC(CC(C4)C2)C3)CSCC1(O)C12CC3CC(CC(C3)C1)C2 (stereo unspecified)	> 100 µM (inactive)	> 100 µM (inactive)	> 100 µM (inactive)	> 100 µM (inactive)		> 10 µM (inactive)	> 100 µM (inactive)	> 100 µM (inactive)	> 100 µM (inactive)	> 100 µM (inactive)	> 100 µM (inactive)	> 100 µM (inactive)	> 100 µM (inactive)	> 100 µM (inactive)		
CN(C)C(=Nc1nc(N(C)C)s[s+]1)N(C)C	> 100 µM (inactive)	> 100 µM (inactive)	> 100 µM (inactive)		> 100 µM (inactive)	> 100 µM (inactive)	72.8 µM (inactive)	> 100 µM (inactive)	> 100 µM (inactive)	> 100 µM (inactive)	> 100 µM (inactive)	> 100 µM (inactive)	> 100 µM (inactive)		> 100 µM (inactive)	> 100 µM (inactive)
CC1(C)CCC[C@@]2(C)C1CC[C@H]1CC(O)C3(C)CCC12C3 (stereo partly specified)	17.5 µM (inactive)	18.2 µM (inactive)	14.4 µM (inactive)		17.9 µM (inactive)	23.3 µM (inactive)	20 µM (inactive)	17.5 µM (inactive)	18.7 µM (inactive)	18.9 µM (inactive)		18.7 µM (inactive)	18.5 µM (inactive)	16.9 µM (inactive)	18.2 µM (inactive)	13.3 µM (inactive)
Cc1ccc2[nH]c3c(C)c4c(c(C)c3c2c1)CN(C)C=C4	0.325 µM (active)	2.53 µM (inactive)	9.29 µM (inactive)	0.285 µM (active)	6.55 µM (inactive)	4.46 µM (inactive)	0.353 µM (active)	3.52 µM (inactive)	0.37 µM (active)	0.393 µM (active)	0.423 µM (active)	0.735 µM (active)	0.444 µM (active)		3.1 µM (inactive)	1.53 µM (inactive)
